Results on 7 compounds are retold here after patent publication US7666834B2, “Macrocyclic inhibitors of hepatitis C virus” (Tibotec Pharmaceuticals Ltd., priority 2005, dated 2010).

Where two headings read alike, the source gives them in different places.

In general, EC50 refers to the concentration at which the effect is half-maximal. A low value points to greater potency. As usually defined, the Ki is the dissociation constant of the complex between target and ligand, obtained from inhibition or displacement.

For one series, the system named is HCV. The conditions noted are these: sustained administration; mutations D168V, D168A and/or A156S; cited from earlier work.
The conditions of series [1]: rcm bond, DCE.
Series [2] concerns HCV replicons (NS3-NS5B regions of HCV type 1b) in Huh-7 luc/neo cells. The series is described as follows: Replicon assay (Huh-Luc cells, luciferase readout). Type of series: cell-based. The settings on record: Hepatitis C virus, Huh-7, 72 h, three days incubation, luciferase activity. An excerpt:
It will be appreciated that it is important to distinguish between compounds that specifically interfere with HCV functions from those that exert cytotoxic or cytostatic effects in the HCV replicon model, and as a consequence cause a decrease in HCV RNA or linked reporter enzyme concentration. Assays are known in the field for the evaluation of cellular cytotoxicity based for example on the activity of mitochondrial enzymes using fluorogenic redox dyes such as resazurin. Furthermore, cellular counter screens exist for the evaluation of non-selective inhibition of linked reporter gene activity, such as firefly luciferase.
The compounds of formula (I) were examined for activity in the inhibition of HCV RNA replication in a cellular assay. […] The cellular assay was based on a bicistronic expression construct, as described by Lohmann et al. (1999) Science vol. […]
The replicon cells were plated in 384 well plates in the presence of the test and control compounds which were added in various concentrations. Following an incubation of three days, HCV replication was measured by assaying luciferase activity (using standard luciferase assay substrates and reagents and a Perkin Elmer ViewLux™ ultraHTS microplate imager). […] The inhibitory activity of the compound on luciferase activity was monitored on the Huh-Luc cells, enabling a dose-response curve for each test compound.
On the technique in general: A replicon is a self-replicating genome or part of one, used to study replication in cells.

A further series has as its target HCV NS3/4A protease (Hepatitis C virus genotype 1a, UniProt P27958). The series is described as follows: biochemical. The settings on record: full-length NS3 protease 1 nM, 25 μM NS4A cofactor, competitive inhibition model; read-out: Ki (nM) Enzymatic assay. The procedure:
[Landro, 1997 #Biochem 36 9340-9348]. […] The solutions were stored at −20° C. between measurements.

For series [3] the following is noted: rcm bond; 14-membered ring; Hoveyda-Grubbs II (25 mol%); DCE; 1.46 mM; 150.0 °C.

For `COc1ccc2c(O[C@@H]3C[C@H]4C(=O)N[C@]5(C(=O)O)C[C@H]5/C=C\CCCCC[C@H](NC(=O)OC5CCCC5)C(=O)N4C3)cc(-c3csc(NC(C)C)n3)nc2c1` [BILN-2061], the “selection of drug escape mutants” value in the series on HCV is listed as “selects HCV mutants which are resistant to the respective drug”.
`CCOC(=O)C12CC1C=CCCCCCN(Cc1ccc(OC)cc1)C(=O)N1CC(O[Si](C)(C)C(C)(C)C)CC1C(=O)N2` (centres unmarked): the ring closure, isolated yield in series [1] (from C=CCCCCCN(Cc1ccc(OC)cc1)C(=O)N1CC(O[Si](C)(C)C(C)(C)C)CC1C(=O)NC1(C(=O)OCC)CC1C=C, 15-membered ring, Hoveyda-Grubbs II (10 mol%), 1.6 mM) was determined as 48%.
As for `CCC[C@H](NC(=O)[C@@H]1[C@H]2CCC[C@H]2CN1C(=O)[C@@H](NC(=O)[C@@H](NC(=O)c1cnccn1)C1CCCCC1)C(C)(C)C)C(=O)C(=O)NC1CC1` [VX-950], in the series with HCV, the “selection of drug escape mutants” value is “selects HCV mutants which are resistant to the respective drug”.
Consider `CN1CCCCC=CC2CC2(C(=O)NS(=O)(=O)C2CC2)NC(=O)C2CC(O)CC2C1=O` (centres unmarked), for which the ring closure, isolated yield in series [1] (14-membered ring, Hoveyda-Grubbs II (15 mol%), 2.07 mM) was determined as 77%.
On to `CN1CCCC/C=C\[C@@H]2C[C@@]2(C(=O)NS(=O)(=O)C2CC2)NC(=O)[C@@H]2C[C@@H](OC(=O)Nc3ccccc3F)C[C@H]2C1=O` [Compound 25, (2-Fluorophenyl)carbamic acid 4-cyclopropanesulfonyl-aminocarbonyl-13-methyl-2,14-dioxo-3,13-diazatricyclo[13.3.0.0^4,6]octadec-7-en-17-yl ester], for which, in series [2], the concentration giving a half-maximal response (EC50) came to 8.4 µM. Besides, the Ki on HCV NS3/4A protease turned out to be 51 nM.
`CN1CCCCC=CC2CC2(C(=O)NS(=O)(=O)C2CC2)NC(=O)C2CC(OC(=O)Nc3ccccc3N3CCCCC3)CC2C1=O` (centres unmarked) registered a ring closure, yield after HPLC in series [3] of 36%.
In series [2], `CCOC(=O)c1ccccc1NC(=O)O[C@@H]1C[C@H]2C(=O)N[C@]3(C(=O)NS(=O)(=O)C4CC4)C[C@H]3/C=C\CCCCN(C)C(=O)[C@@H]2C1` [Compound 26, 2-(4-Cyclopropanesulfonylaminocarbonyl-13-methyl-2,14-dioxo-3,13-diaza-tricyclo-[13.3.0.0^4,6]octadec-7-en-17-yloxycarbonylamino)-benzoic acid ethyl ester] came in with an EC50 of 0.0492 µM.
